Values quoted from earlier work, collected in US20100228037A1, “Process for Preparing Allylmercaptocaptopril (Cpssa) and Related Asymmetrical Disulfides” (Yeda Research And Development Co. Ltd. at the Weizmann …, priority 2006, published 2010).
Where two headings read alike, the source gives them in different places.

Columns and labels:
[1] = blood or plasma of mammals
[2] = in vitro, human blood
[3] = in vivo, rats
[4] = rats, immediately after administration

SMILES	antihypertensive properties compared with unmodified captopril (rats; rat, in vivo)	blood pressure (rats; [4])	serum level of insulin (rats; [4])	serum level of triglycerides (rats; [4])	stability in blood or plasma [1]	disintegration in blood after administration [2]	disintegration in blood after administration [3]
C=CCSSC[C@H](C)C(=O)N1CCC[C@H]1C(=O)O [CPSSA, allylmercaptocaptopril]	improved antihypertensive properties	significantly decreased blood pressure	to near normal levels	to near normal levels	stable in blood or plasma of mammals	–	–
C=CCS[S+]([O-])CC=C (stereo not shown) [allicin]	–	–	–	–	–	disintegrates in the blood a few minutes post its administration	disintegrates in the blood a few minutes post its administration
